Source: patent US11931431B2, “PSMA-targeted radiopharmaceutical for diagnosing and treating prostate cancer” (FUTURECHEM CO., LTD, priority 2018, dated 2024)

Test system: PSMA^+ PC-3 PIP tumors
Experiment: MicroPET/CT imaging of mice transplanted with prostate cancer cell lines
Format: in vivo, nude mouse
Protocol: A tumor model was prepared by subcutaneously injecting PSMA^+ PC-3 PIP cells (a human prostate cancer cell line) to the right side of the nude mouse hind leg. Each of the ^68Ga-labeled compounds [^68Ga]1e, [^68Ga]1g, [^68Ga]1h and [^68Ga]1k was intravenously injected with 5.5 to 6.5 MBq (148-175 μCi/200 μL), and PET/CT images were obtained using small animal INVEON PET/CT (Siemens medical solutions, Knoxville, USA) for 60 minutes. After 150 minutes, 270 minutes, and 390 minutes, PET/CT images were also obtained for 30 minutes. The obtained PET/CT image results were quantitatively analyzed using Inveon™ Research Workplace (IRW).
FIGS. 1, 2, 3, and 4 are graphs showing the quantitative analysis results of MicorPET/CT images for [^68Ga]1e, [^68Ga]1g, [^68Ga]1h, and [^68Ga]1k in % injected dose (ID)/g, and summarized in Tables 3, 4, 5, and 6, respectively.

O=C(O)CCC(NC(=O)NC(CCCCN(CC(=O)O)C(=O)COCCNC(=O)C(CCCCNC(=O)CCCc1ccc(I)cc1)NC(=O)CN1CCN2CCN3CCN(CC1)CC(=O)[O][68Ga]([O]C(=O)C2)[O]C(=O)C3)C(=O)O)C(=O)O (stereo not drawn) [[^68Ga]1k]
intake of mouse organ: Bladder (10 min after injection): 4.12 ± 0.45 % ID/g
intake of mouse organ: Heart (10 min after injection): 21.67 ± 0.44 % ID/g
intake of mouse organ: Kidney (10 min after injection): 11.16 ± 1.35 % ID/g
intake of mouse organ: Liver (10 min after injection): 11.99 ± 4.72 % ID/g
intake of mouse organ: Muscle (10 min after injection): 2.26 ± 0.75 % ID/g
intake of mouse organ: Tumor (PIP) (10 min after injection): 1.85 ± 0.25 % ID/g
intake of mouse organ: Bladder (20 min after injection): 4.68 ± 0.22 % ID/g
intake of mouse organ: Heart (20 min after injection): 20.10 ± 0.29 % ID/g
intake of mouse organ: Kidney (20 min after injection): 11.21 ± 1.62 % ID/g
intake of mouse organ: Liver (20 min after injection): 11.09 ± 3.46 % ID/g
intake of mouse organ: Muscle (20 min after injection): 2.91 ± 1.21 % ID/g
intake of mouse organ: Tumor (PIP) (20 min after injection): 3.22 ± 0.38 % ID/g
intake of mouse organ: Bladder (30 min after injection): 4.68 ± 0.45 % ID/g
intake of mouse organ: Heart (30 min after injection): 18.33 ± 0.13 % ID/g
intake of mouse organ: Kidney (30 min after injection): 10.89 ± 1.36 % ID/g
intake of mouse organ: Liver (30 min after injection): 10.04 ± 2.73 % ID/g
intake of mouse organ: Muscle (30 min after injection): 3.09 ± 0.91 % ID/g
intake of mouse organ: Tumor (PIP) (30 min after injection): 3.94 ± 0.38 % ID/g
intake of mouse organ: Bladder (40 min after injection): 4.75 ± 0.21 % ID/g
intake of mouse organ: Heart (40 min after injection): 17.22 ± 0.35 % ID/g
intake of mouse organ: Kidney (40 min after injection): 11.06 ± 1.02 % ID/g
intake of mouse organ: Liver (40 min after injection): 9.31 ± 2.32 % ID/g
intake of mouse organ: Muscle (40 min after injection): 3.32 ± 1.20 % ID/g
intake of mouse organ: Tumor (PIP) (40 min after injection): 4.40 ± 0.36 % ID/g
intake of mouse organ: Bladder (50 min after injection): 4.83 ± 0.18 % ID/g
intake of mouse organ: Heart (50 min after injection): 16.06 ± 0.38 % ID/g
intake of mouse organ: Kidney (50 min after injection): 10.80 ± 1.20 % ID/g
intake of mouse organ: Liver (50 min after injection): 8.73 ± 2.11 % ID/g
intake of mouse organ: Muscle (50 min after injection): 3.24 ± 1.07 % ID/g
intake of mouse organ: Tumor (PIP) (50 min after injection): 5.03 ± 0.33 % ID/g
intake of mouse organ: Bladder (60 min after injection): 4.81 ± 0.24 % ID/g
intake of mouse organ: Heart (60 min after injection): 15.03 ± 0.27 % ID/g
intake of mouse organ: Kidney (60 min after injection): 10.96 ± 1.18 % ID/g
intake of mouse organ: Liver (60 min after injection): 8.22 ± 1.79 % ID/g
intake of mouse organ: Muscle (60 min after injection): 3.49 ± 1.28 % ID/g
intake of mouse organ: Tumor (PIP) (60 min after injection): 5.45 ± 0.16 % ID/g
intake of mouse organ: Bladder (150 min after injection): 18.10 ± 6.51 % ID/g
intake of mouse organ: Heart (150 min after injection): 7.85 ± 1.63 % ID/g
intake of mouse organ: Kidney (150 min after injection): 11.40 ± 1.13 % ID/g
intake of mouse organ: Liver (150 min after injection): 5.00 ± 1.41 % ID/g
intake of mouse organ: Muscle (150 min after injection): 2.75 ± 1.20 % ID/g
intake of mouse organ: Tumor (PIP) (150 min after injection): 11.00 ± 2.12 % ID/g
intake of mouse organ: Bladder (270 min after injection): 20.10 ± 4.53 % ID/g
intake of mouse organ: Heart (270 min after injection): 5.10 ± 0.85 % ID/g
intake of mouse organ: Kidney (270 min after injection): 9.25 ± 0.78 % ID/g
intake of mouse organ: Liver (270 min after injection): 3.60 ± 0.71 % ID/g
intake of mouse organ: Muscle (270 min after injection): 2.15 ± 0.78 % ID/g
intake of mouse organ: Tumor (PIP) (270 min after injection): 15.70 ± 4.24 % ID/g
intake of mouse organ: Bladder (390 min after injection): 14.25 ± 0.64 % ID/g
intake of mouse organ: Heart (390 min after injection): 3.80 ± 1.41 % ID/g
intake of mouse organ: Kidney (390 min after injection): 7.70 ± 0.71 % ID/g
intake of mouse organ: Liver (390 min after injection): 2.25 ± 0.64 % ID/g
intake of mouse organ: Muscle (390 min after injection): 1.20 ± 0.56 % ID/g
intake of mouse organ: Tumor (PIP) (390 min after injection): 18.25±4.17 % ID/g
excretion, in words (MicroPET/CT): rapidly excreted out of the body
residence time in the blood, in words (MicroPET/CT): residence time in the blood was increased
tumor intake over time, in words (MicroPET/CT): tumor intake continued to increase after 390 minutes
